The values that follow are results of earlier work, collected in US20220000967A1, “SYNTHETIC PEPTIDES INDUCING IMMUNOGENIC CELL DEATH” (SORBONNE UNIVERSITE, priority 2018, published 2022).

The data set deals with murine B78 melanoma cells. To be noted: melphalan killed B78 cells injected, re-challenged 10 days later with B78 viable cells; cited from earlier work.

Take `N[C@@H](Cc1ccc(N(CCCl)CCCl)cc1)C(=O)O` [melphalan]: the mice without tumor is listed as 40%.
